Results: ChEMBL document CHEMBL1201862, “PubChem BioAssay data set” (2004)
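A five-concentration, 48-hour dose response in 96-well plates underlies each endpoint, interpolated linearly between surrounding concentrations. Abbreviation: GI50, concentration required for 50% inhibition of growth.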 The source made the active and inactive calls. Rule as the data show it: active = GI50 up to about 1.1 µM and inactive = higher.

How the values were obtained:
Experiment in all cases: NCI tumour cell line growth inhibition, 48 h
K562 = test system: K562
M14 = test system: M14
U-251 = test system: U-251
SF-268 = test system: SF-268
HT-29 = test system: HT-29
OVCAR-3 = test system: OVCAR-3
HOP-62 = test system: HOP-62
MDA-N = test system: MDA-N
MDA-MB-231 = test system: MDA-MB-231
LOX IMVI = test system: LOX IMVI
SNB-19 = test system: SNB-19
RXF 393 = test system: RXF 393
COLO 205 = test system: COLO 205
CAKI-1 = test system: CAKI-1
EKVX = test system: EKVX
T47D = test system: T47D
HL-60 = test system: HL-60
HCT-116 = test system: HCT-116
KM12 = test system: KM12

Row | Structure (SMILES) | GI50 (K562) | GI50 (M14) | GI50 (U-251) | GI50 (SF-268) | GI50 (HT-29) | GI50 (OVCAR-3) | GI50 (HOP-62) | GI50 (MDA-N) | GI50 (MDA-MB-231) | GI50 (LOX IMVI) | GI50 (SNB-19) | GI50 (RXF 393) | GI50 (COLO 205) | GI50 (CAKI-1) | GI50 (EKVX) | GI50 (T47D) | GI50 (HL-60) | GI50 (HCT-116) | GI50 (KM12)
1 | O=C1CCCc2cc3c(cc21)CC1(C3)Cc2cc3c(cc2C1)C(=O)CCC3 | 0.396 µM (active) | 0.536 µM (active) | 1.64 µM (inactive) | 3.37 µM (inactive) | 0.743 µM (active) | 1.57 µM (inactive) | 2.29 µM (inactive) | 0.214 µM (active) | 3.16 µM (inactive) | 1.48 µM (inactive) | 4.58 µM (inactive) | 1.45 µM (inactive) | 1.33 µM (inactive) | 1.91 µM (inactive) | 5.48 µM (inactive) | 9.48 µM (inactive) | 0.368 µM (active) | 0.706 µM (active) | 0.493 µM (active)
2 | COCCOC(=O)c1c(C)[n+]([O-])c2cc(Cl)c(Cl)cc2[n+]1[O-] | 13.7 µM (inactive) | 18.6 µM (inactive) | 9.82 µM (inactive) | 14.2 µM (inactive) | 18.7 µM (inactive) | 13.4 µM (inactive) | 11 µM (inactive) | 23.2 µM (inactive) | 24.1 µM (inactive) | 13.5 µM (inactive) | 40.8 µM (inactive) | 30.4 µM (inactive) | 12.5 µM (inactive) | 19 µM (inactive) | 17.1 µM (inactive) | 4.68 µM (inactive) | 6.41 µM (inactive) | – | 10.8 µM (inactive)
3 | Nc1nc(Cl)cc(NCC2(CO)CCC2)n1 | > 100 µM (inactive) | – | > 100 µM (inactive) | > 100 µM (inactive) | > 100 µM (inactive) | > 100 µM (inactive) | > 100 µM (inactive) | > 100 µM (inactive) | > 100 µM (inactive) | > 100 µM (inactive) | > 100 µM (inactive) | > 100 µM (inactive) | > 100 µM (inactive) | > 100 µM (inactive) | 75.2 µM (inactive) | 29.7 µM (inactive) | > 100 µM (inactive) | > 100 µM (inactive) | > 100 µM (inactive)
4 | N#Cc1c(O)c2ccccc2[nH]c1=O | > 100 µM (inactive) | > 100 µM (inactive) | > 100 µM (inactive) | – | > 100 µM (inactive) | > 100 µM (inactive) | > 100 µM (inactive) | > 100 µM (inactive) | > 100 µM (inactive) | > 100 µM (inactive) | > 100 µM (inactive) | > 100 µM (inactive) | > 100 µM (inactive) | > 100 µM (inactive) | > 100 µM (inactive) | > 100 µM (inactive) | > 100 µM (inactive) | > 100 µM (inactive) | > 100 µM (inactive)
5 | CC(C)=NOC(=O)CNC(=O)C(Cc1ccccc1)NC(=O)C(C)NC(=O)OC(C)(C)C (stereo not drawn) | > 100 µM (inactive) | > 100 µM (inactive) | > 100 µM (inactive) | > 100 µM (inactive) | > 100 µM (inactive) | > 100 µM (inactive) | > 100 µM (inactive) | > 100 µM (inactive) | > 100 µM (inactive) | > 100 µM (inactive) | > 100 µM (inactive) | > 100 µM (inactive) | > 100 µM (inactive) | > 100 µM (inactive) | > 100 µM (inactive) | > 100 µM (inactive) | > 100 µM (inactive) | > 100 µM (inactive) | > 100 µM (inactive)
6 | O=C(Nc1nc(C23CC4CC(CC(C4)C2)C3)cs1)c1cc2cc(Br)cc(Br)c2oc1=O | 42.5 µM (inactive) | – | 20.3 µM (inactive) | 37.8 µM (inactive) | > 100 µM (inactive) | 61.4 µM (inactive) | 70.8 µM (inactive) | 87.5 µM (inactive) | 52.6 µM (inactive) | > 100 µM (inactive) | 41.8 µM (inactive) | 31 µM (inactive) | > 100 µM (inactive) | > 100 µM (inactive) | 39.4 µM (inactive) | > 100 µM (inactive) | 65.5 µM (inactive) | 59 µM (inactive) | > 100 µM (inactive)
7 | COC(=O)c1ccc2c(c1)CC1(C2)Cc2cc3c(c(C(=O)OC)c2C1)CCCC3 (stereo not drawn) | 41.1 µM (inactive) | – | 61.7 µM (inactive) | > 100 µM (inactive) | 55.7 µM (inactive) | 18.3 µM (inactive) | > 100 µM (inactive) | 93.1 µM (inactive) | 64.3 µM (inactive) | 51.4 µM (inactive) | – | > 100 µM (inactive) | 49.4 µM (inactive) | 28.8 µM (inactive) | 60 µM (inactive) | 47.3 µM (inactive) | 31.5 µM (inactive) | 44.6 µM (inactive) | > 100 µM (inactive)
8 | N#Cc1c(N)nc(Sc2ccccc2N)c(C#N)c1-c1ccc(Cl)cc1 | 3.07 µM (inactive) | 10.5 µM (inactive) | 7.59 µM (inactive) | 6.24 µM (inactive) | 7.71 µM (inactive) | 6.34 µM (inactive) | 3.7 µM (inactive) | 9.91 µM (inactive) | 9.77 µM (inactive) | 4.45 µM (inactive) | 14.3 µM (inactive) | 16 µM (inactive) | 28.5 µM (inactive) | 17.9 µM (inactive) | 4.29 µM (inactive) | 0.368 µM (active) | > 27.5 µM (inactive) | 6.81 µM (inactive) | 12.6 µM (inactive)
9 | C=CCc1c(Cl)nc(Cl)nc1Cl | < 0.0151 µM (active) | < 0.0156 µM (active) | 0.578 µM (active) | 1.66 µM (inactive) | 0.266 µM (active) | 0.161 µM (active) | 0.515 µM (active) | 0.0308 µM (active) | 0.561 µM (active) | < 0.0115 µM (active) | 0.859 µM (active) | 0.217 µM (active) | 0.195 µM (active) | 0.0176 µM (active) | 1.02 µM (active) | 0.313 µM (active) | > 100 µM (inactive) | 0.352 µM (active) | 0.439 µM (active)
10 | O=C1CC[N+]2=Cc3ccccc3O[B-]2(c2ccccc2)O1 (stereo not drawn) | > 100 µM (inactive) | > 100 µM (inactive) | > 100 µM (inactive) | > 100 µM (inactive) | > 100 µM (inactive) | > 100 µM (inactive) | > 100 µM (inactive) | > 100 µM (inactive) | > 100 µM (inactive) | > 100 µM (inactive) | > 100 µM (inactive) | > 100 µM (inactive) | > 100 µM (inactive) | > 100 µM (inactive) | > 100 µM (inactive) | > 100 µM (inactive) | 89.9 µM (inactive) | > 100 µM (inactive) | > 100 µM (inactive)
11 | C/C(=N\NC(N)=S)c1ccccn1.OB(O)c1ccccc1 | 3.61 µM (inactive) | 2.98 µM (inactive) | 3.28 µM (inactive) | 2.67 µM (inactive) | 6.47 µM (inactive) | 2.62 µM (inactive) | 5.5 µM (inactive) | 7.53 µM (inactive) | 7.16 µM (inactive) | 2.58 µM (inactive) | 10.5 µM (inactive) | 2.37 µM (inactive) | 3.85 µM (inactive) | 3.63 µM (inactive) | 4.69 µM (inactive) | 3.8 µM (inactive) | 1.1 µM (active) | 3.5 µM (inactive) | 7.45 µM (inactive)
